The text below walks through data of patent publication US10111847B2, “Compounds and methods for modulating vascular injury” (The Regents of the University of California, priority 2012, dated 2018).

The subject of experiment [1] is human saphenous vein vascular smooth muscle (sv-VSMC) cells. Description: TNFα induced superoxide production (DHE) in sv-VSMC (Maresin-1). The format is cell-based. Particulars: 100 nM; TNFα 10 ng/ml 4 hr. The method, then:
Mar-1. Cells were grown in 8-well chamber slides at a density of 15000 cells/well for 2 days for VSMCs and 50000 cells/well for 2 days for ECs in a 96 well plate. After treatments, cells were incubated with dihydroethidium (DHE, 3 μM, Invitrogen) or CellRox (Invitrogen Inc, 5 μM for ECs) in media for 30 minutes at 37° C. in a humidified chamber with 5% CO2 protected from light. DAPI nuclear counter staining was utilized for DHE staining. For DHE, fluorescence was detected with TRITC filter allowing the detection of the DHE emission wavelength of 590-620 nm. Fluorescence quantitation was performed using ImageJ analysis software. For ECs, fluorescence measurements were taken using a Spectramax M2e plate reader.
FIGS. 13A-13D. Representative merged images of DHE staining, counterstained with DAPI. (A), Negative control. (B), TNFα at 10 ng/ml for 4 hr. […] (E) Quantitative comparison of DHE staining intensity in the nucleus of human saphenous vein vascular smooth muscle (sv-VSMC) cells, treated with TNFα and 7S and 7R-Maresin-1 with and without pertussis toxin. (F) Quantitative comparison of cellular ROS production by CellRox (Life technologies, Carlsbad, Calif.) in human saphenous vein endothelial (EC) cells treated with TNFα (1 ng/nil) and 7S-Maresin-1 (N>=3). […]

Experiment [2] concerns p65 subunit. Description: Nuclear translocation of p65 subunit in sv-VSMCs (immunofluorescence). The format is cell-based, human. Particulars: 100 nm, 30 min; TNFα 10 ng/ml 2 hrs. How it is done:
Immunofluorescence for p65 (RelA): 15000 VSMCs or 30000 ECs were seeded on a 8-well chamber slide. Cells received 30 min of Maresin-1 pretreatment, followed by TNF-α for 2 hr. Cells were fixed in 2% paraformaldehyde, followed by permeabilization with ice-cold acetone (10 min) and 1% Triton X-100 (20 min). Cells were incubated overnight in a humidified chamber with anti-p65 antibody (Santa Cruz Biotechnology Inc.) followed by Alexa-fluor 488 tagged secondary antibody (Life Technologies) and were visualized under a fluorescent microscope.
FIGS. 16A-16D. VSMCs were grown in chamber slides and treated with vehicle or 100 nm of 7S or 7R-Maresin-1 with/without 10 ng/ml pertussis toxin for 30 min, followed by TNFα (10 ng/ml) for 2 hrs. Cells were fixed and subsequently stained with anti-p65 (Santa Cruz Biotechnology) and secondary antibodies (Alexa-488). (A-D) Representative images of Ctrl (A), TNFα (B), 7R-Maresin-1+TNFα (C) and 7R-Maresin-1+pertussis toxin (10 ng/ml)+TNFα. (E) Mean fluorescence of nucleus and cytoplasm were quantified from all groups and the net result of the ratio of nucleus over cytoplasmic mean fluorescence is depicted in the bar graph, as a measure of relative p65 nuclear translocation. (N>=3). […]

Experiment [3] relates to IKKα/β subunit. Nature of the experiment: TNFα induced phosphorylation of IKKα/β in sv-VSMCs, western blot. The format is cell-based, human. Particulars: 100 nm, 30 min; TNFα 10 ng/ml 15 min. The method, then: (§1) Mar-1. VSMCs and ECs were lysed in buffer (20 mM Tris-Hcl, 137 mM NaCl, 10% Glycerol, 1% NP-40) with protease and phosphatase inhibitors (Halt inhibitor capsules, Pierce, Inc) by sonication on ice. The lysates were instantly snap frozen in liquid nitrogen and thawed back later for western blotting. After centrifugation (15,000 g for 20 minutes), the whole cell extract (supernatant) was collected and was heated at 100° C. in Laemlli buffer for 6 minutes. Lysates were run on Mini-Protean TGX gels
(§2) (Biorad) and transferred on PVDF membranes which were probed with appropriate primary and secondary antibodies and visualized for quantitation using q-dot nanocrystals (Life Technologies, Inc).
(§3) Cells were pretreated with 100 nm of 7S/7R-Maresin-1 for 30 min, followed by TNFα (10 ng/ml for VSMC and 1 ng/ml for EC) for 15 min. Whole cell lysates were collected and probed for pan and phospho IKK (Cell Signaling Inc.).
(§4) FIG. 18. IKK-phospho and total IKK western blotting image is representative of three independent experiments. Bar graph represents net quantitative densitometry analysis. N=3. P≤0.05, One-way ANOVA with Dunnett's post hoc test. *: P≤0.05 compared to control, unpaired t-test. †: P≤0.05 compared to TNFα, unpaired t-test. Error bars: SEM.
(In general: Immunoblotting shows a protein as a band on a membrane.)

The subject of experiment [4] is IKKα/β subunit. Description: TNFα induced phosphorylation of IKKα/β in sv-ECs, western blot. The format is cell-based, human. Particulars: 100 nm, 30 min; TNFα 1 ng/ml 15 min. How it is done:
as §1, §2, §3, §4

Experiment [5] concerns carotid artery. Description: Mouse carotid artery ligation model, neointima formation. Particulars: intraperitoneal 100 ng/dose on days 0, 1, 3, 5 and 7; sacrificed at 14 days. The format is in vivo, FVB Mice. The method, then:
To examine the potential therapeutic effects of systemic administration of pro-resolving mediators in acute vascular injury, a standardized mouse model of carotid ligation was employed. FVB Mice (N=23) were treated with intraperitoneal administration of RvD2 (100 ng/dose), 7R Mar-1 (100 ng/dose) or vehicle on days 0 (4 hrs prior to carotid injury), 1, 3, 5 and 7. Total dose received was 500 ng/mouse. Unilateral carotid ligation was performed as a standardized model of vascular injury, induced by low shear. Animals were then sacrificed at 14 days and perfusion-fixed vessels explanted for analysis. Following elastin staining, neointima (NI) and medial (M) compartments were measured by a blinded observer, and ratios (area and average wall thickness) calculated. Analysis was performed at mid CCA level (2.5 mm from ligature).
FIG. 22. (A)-(C), depict a cross-section of a carotid artery at mid CCA level (2.5 mm from ligature) from carotid ligation mouse model administered vehicle (A), RvD2 (B), or 7R-Mar-1 (C). (D)-(E) depict NUM ratio of the cross-section of the carotid artery at mid CCA level from carotid ligation mouse model administered vehicle, RvD2, or 7R-Mar-1. […]

Experiment [6] concerns MCP-1. Description: MCP-1 expression in TNF-α stimulated VSMCs by qRT-PCR. Particulars: 10, 100 nM; TNF-α 10 ng/ml 18 hours; P<0.05. The format is cell-based, human. The method, then:
FIGS. 15A-15D. Representative images of Calcein-AM labeled U937 monocytes adhered to human sv-VSMCs pretreated with vehicle (A, B) or 7S-Maresin-1 (C) or 7S-Maresin-1 and pertussis toxin (D) for 30 min, followed by TNFα at 10 ng/ml for 4 hr (B, C, D). (E) Quantitative analysis of U937 adhesion assay in human sv-VSMCs and (F) human sv-ECs (1 ng/ml TNFα used for EC cells). P≤0.05, One-way ANOVA with Dunnett's post hoc test. *: P≤0.05 compared to control, unpaired t-test. †: P≤0.05 compared to TNFα, unpaired t-test. ‡: P≤0.05 compared to TNFα+7S-Maresin-1, unpaired t-test. (G) VSMCs were pretreated with 7S-Maresin-1 or vehicle for 30 min, followed by TNFα at 10 ng/ml for 4 hr. Whole cell lysates were blotted for VCAM-1 (Pierce Inc.) and beta-actin (Sigma). VCAM-1 and beta-actin western blotting image is representative of three independent experiments. Bar graph represents net quantitative densitometry analysis. N=3. P=0.06, One-way ANOVA with Kruskal Wallis nonparametric test. P=0.07 of TNFα, compared to control, Mann Whitney test. P=0.20 of 7S-Maresin-1 at 10 nm and 100 nm compared to TNFα, Mann Whitney test. Error bars: SEM. […] Expression of MCP-1 was measured by qRT-PCR, and normalized to unstimulated cells (n=3, results are mean±SEM, P<0.05 for Mar-1 (10 and 100 nM) vs TNF alone, unpaired t-test).
On the technique in general: In qPCR the cycle at which signal appears reflects the starting amount.

Consider `CC/C=C\C/C=C\C[C@@H](O)\C=C/C=C/C=C/[C@@H](O)C/C=C\CCC(=O)O` [7R-Maresin-1, 7R,14S-dihydroxydocosa-4Z,8E,10E,12Z,16Z,19Z-hexaenoic acid], for which the “TNF-α-induced superoxide production in VSMC” value in experiment [1] is listed as “Reduce”. Also, in experiment [2], the “nuclear translocation of p65 subunit in human sv-VSMCs” value was “Inhibit”. Moreover, the “TNFα induced phosphorylation of IKKα/β subunit in human sv-VSMCs” value in experiment [3] was “Reduce”. Further, the “TNFα induced phosphorylation of IKKα/β subunit in human sv-ECs” value in experiment [4] is given as “Reduce”. Also, the “neointima formation following carotid artery ligation” value in experiment [5] is “Reduces”.

Turning to `CC/C=C\C/C=C\CC(O)\C=C/C=C/C=C/C(O)C/C=C\CCC(=O)O` (stereo not drawn) [Mar-1, maresin 1 (7, 14-dihydroxy DHA)], the “MCP-1 expression by TNF-α stimulated VSMCs” value in experiment [6] is listed as “reduced”.
